A word on the EC50: it is the concentration that produces a half-maximal response.

Some results are limits rather than exact numbers.

For one assay, the system named is HBV (encapsidated HBV DNA, HepG2.2.15 cells). The experiment in a line: HBV replication inhibition assay, BDNA assay in HepG2.2.15 cells. The following applies: Activity in BDNA-assay. The format is cell-based. The method in brief: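 Encapsidated HBV DNA in DNase-treated, proteinase K-lysed supernatant was measured by branched DNA after 6 days' compound exposure, refreshed on day 3, of HepG2.2.15 cells in 0.5% DMSO. Signals normalized to DMSO-treated wells; EC50 from nonlinear regression of inhibition against log concentration.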
For `CCC(O)C1CN(C)C(=O)c2c3c(nn2C1)CC(C)N(C(=O)Nc1ccc(F)c(C(F)(F)F)c1)C3` [Compound 107_D2, (3R,8R*)—N-(4-fluoro-3-(trifluoromethyl)phenyl)-8-((R)-1-hydroxypropyl)-3,10-dimethyl-11-oxo-1,3,4,7,8,9,10,11-octahydro-2H-pyrido[4′,3′:3,4]pyrazolo[1,5-a][1,4] diazepine-2-carboxamide], the concentration giving a half-maximal response (EC50) fell in the range of 1 to 100 nM.
Same read-out and setting: then `CCC(O)C1CN(C)C(=O)c2c3c(nn2C1)CC(C)N(C(=O)Nc1ccc(F)c(C#N)c1)C3` [Compound 108_D1, (3R,8S*)—N-(3-cyano-4-fluorophenyl)-8-((R)-1-hydroxypropyl)-3,10-dimethyl-11-oxo-1,3,4,7,8,9,10,11-octahydro-2H-pyrido[4′,3′:3,4]pyrazolo[1,5-a][1,4]diazepine-2-carboxamide], with 1 to 100 nM; and `CCC(O)C1CN(C)C(=O)c2c3c(nn2C1)CC(C)N(C(=O)Nc1ccc(F)c(C#N)c1)C3` [Compound 108_D2, (3R,8R*)—N-(3-cyano-4-fluorophenyl)-8-((R)-1-hydroxypropyl)-3,10-dimethyl-11-oxo-1,3,4,7,8,9,10,11-octahydro-2H-pyrido[4′,3′:3,4]pyrazolo[1,5-a][1,4]diazepine-2-carboxamide], with 100 to 500 nM; and `CCC(O)C1CN(C)C(=O)c2c3c(nn2C1)CC(C)N(C(=O)Nc1ccc(F)c(Br)c1)C3` [Compound 109_D2, (3R,8R*)—N-(3-bromo-4-fluorophenyl)-8-((R)-1-hydroxypropyl)-3,10-dimethyl-11-oxo-1,3,4,7,8,9,10,11-octahydro-2H-pyrido[4′,3′:3,4]pyrazolo[1,5-a][1,4]diazepine-2-carboxamide], with 1 to 100 nM.
The same measure, in the same setting: then `CN1CC(C(O)CCF)Cn2nc3c(c2C1=O)CN(C(=O)Nc1ccc(F)c(Cl)c1)CC3` (stereo not drawn) [Compound 115, N-(3-chloro-4-fluoro-phenyl)-8-(3-fluoro-1-hydroxy-propyl)-10-methyl-1-oxo-1,3,4,7,8,9-hexahydropyrido[2,3]pyrazolo[2,4-b][1,4]diazepine-2-carboxamide], with 1 to 100 nM; and `C=CC(O)C1CN(C)C(=O)c2c3c(nn2C1)CC(C)N(C(=O)Nc1ccc(F)c(C(F)(F)F)c1)C3` [Compound 122_D1, (3R,8S*)—N-(4-fluoro-3-(trifluoromethyl)phenyl)-8-((R*)-1-hydroxyallyl)-3,10-dimethyl-11-oxo-1,3,4,7,8,9,10,11-octahydro-2H-pyrido[4′,3′:3,4]pyrazolo[1,5-a][1,4]diazepine-2-carboxamide], with 1 to 100 nM.
Same read-out and setting: then `C=CC(O)C1CN(C)C(=O)c2c3c(nn2C1)CC(C)N(C(=O)Nc1ccc(F)c(C(F)(F)F)c1)C3` [Compound 122_D2, (3R,8S*)—N-(4-fluoro-3-(trifluoromethyl)phenyl)-8-((S*)-1-hydroxyallyl)-3,10-dimethyl-11-oxo-1,3,4,7,8,9,10,11-octahydro-2H-pyrido[4′,3′:3,4]pyrazolo[1,5-a][1,4]diazepine-2-carboxamide], with 100 to 500 nM; and `C=CC(O)C1CN(C)C(=O)c2c3c(nn2C1)CC(C)N(C(=O)Nc1ccc(F)c(Br)c1)C3` [Compound 124_D2, (3R,8S*)—N-(3-bromo-4-fluorophenyl)-8-((S*)-1-hydroxyallyl)-3,10-dimethyl-11-oxo-1,3,4,7,8,9,10,11-octahydro-2H-pyrido[4′,3′:3,4]pyrazolo[1,5-a][1,4]diazepine-2-carboxamide], with 1 to 100 nM.

Still in this assay, the particulars now being: Hepatitis B virus, HepG2.2.15, Activity in BDNA-assay.
Take `CN1CC(CN)Cn2nc3c(c2C1=O)CN(C(=O)Nc1ccc(F)c(C#N)c1)CC3` (stereo not drawn) [Compound 095, 8-(aminomethyl)-N-(3-cyano-4-fluorophenyl)-10-methyl-11-oxo-1,3,4,7,8,9,10,11-octahydro-2H-pyrido[4′,3′:3,4]pyrazolo[1,5-a][1,4]diazepine-2-carboxamide]: the concentration for a half-maximal effect (EC50) was 1 to 100 nM.
On the same count and under the same terms, then `CCC(O)C1CN(C)C(=O)c2c3c(nn2C1)CCN(C(=O)Nc1ccc(F)c(Br)c1)C3` [Compound 102_E1, (R*)—N-(3-bromo-4-fluorophenyl)-8-((S)-1-hydroxypropyl)-10-methyl-11-oxo-1,3,4,7,8,9,10,11-octahydro-2H-pyrido[4′,3′:3,4]pyrazolo[1,5-a][1,4]diazepine-2-carboxamide], with 1 to 100 nM.
`CCCC(O)C1CN(C)C(=O)c2c3c(nn2C1)CCN(C(=O)Nc1ccc(F)c(Cl)c1)C3` (stereo not drawn) [Compound 106, N-(3-chloro-4-fluoro-phenyl)-8-(1-hydroxybutyl)-10-methyl-1-oxo-1,3,4,7,8,9-hexahydropyrido[2,3]pyrazolo[2,4-b][1,4]diazepine-2-carboxamide]: the EC50 lay in the range of 1 to 100 nM.
On the same count and under the same terms, the result for `CCC(O)C1CN(C)C(=O)c2c3c(nn2C1)CC(C)N(C(=O)Nc1ccc(F)c(C(F)(F)F)c1)C3` [Compound 107_D1, (3R,8S*)—N-(4-fluoro-3-(trifluoromethyl)phenyl)-8-((R)-1-hydroxypropyl)-3,10-dimethyl-11-oxo-1,3,4,7,8,9,10,11-octahydro-2H-pyrido[4′,3′:3,4]pyrazolo[1,5-a][1,4] diazepine-2-carboxamide] reads 1 to 100 nM; that for `CCC(O)C1CN(C)C(=O)c2c3c(nn2C1)CC(C)N(C(=O)Nc1ccc(F)c(Br)c1)C3` [Compound 109_D1, (3R,8 S*)—N-(3-bromo-4-fluorophenyl)-8-((R)-1-hydroxypropyl)-3,10-dimethyl-11-oxo-1,3,4,7,8,9,10,11-octahydro-2H-pyrido[4′,3′:3,4]pyrazolo[1,5-a][1,4]diazepine-2-carboxamide], 1 to 100 nM; that for `CN1CCCCn2nc3c(c2C1=O)CN(C(=O)Nc1ccc(F)c(Cl)c1)CC3` [Compound 110, N-(3-chloro-4-fluorophenyl)-11-methyl-12-oxo-3,4,7,8,9,10,11,12-octahydropyrido[4′,3′:3,4]pyrazolo[1,5-a][1,4]diazocine-2 (1H)-carboxamide], 1 to 100 nM.
Turning to `CN1C/C=C\Cn2nc3c(c2C1=O)CN(C(=O)Nc1ccc(F)c(Cl)c1)CC3` [Compound 111, (Z)—N-(3-chloro-4-fluorophenyl)-11-methyl-12-oxo-3,4,7,10,11,12-hexahydropyrido[4′,3′:3,4]pyrazolo[1,5-a][1,4]diazocine-2 (1H)-carboxamide], the EC50 lay within 1 to 100 nM.
As to `CN1CCC(C(=O)O)n2nc3c(c2C1=O)CN(C(=O)Nc1ccc(F)c(Cl)c1)CC3` (stereo not drawn) [Compound 113, 2-((3-chloro-4-fluorophenyl)carbamoyl)-10-methyl-11-oxo-1,3,4,7,8,9,10,11-octahydro-2H-pyrido[4′,3′:3,4]pyrazolo[1,5-a][1,4]diazepine-7-carboxylic acid], the EC50 is over 1000 nM.
Same read-out and setting: the result for `CN1CCC(CO)n2nc3c(c2C1=O)CN(C(=O)Nc1ccc(F)c(Cl)c1)CC3` (stereo not drawn) [Compound 114, N-(3-chloro-4-fluorophenyl)-7-(hydroxymethyl)-10-methyl-11-oxo-1,3,4,7,8,9,10,11-octahydro-2H-pyrido[4′,3′:3,4]pyrazolo[1,5-a][1,4]diazepine-2-carboxamide] reads 1 to 100 nM; that for `CN1CC(C(O)CC(F)F)Cn2nc3c(c2C1=O)CN(C(=O)Nc1ccc(F)c(Cl)c1)CC3` (stereo not drawn) [Compound 116, N-(3-chloro-4-fluoro-phenyl)-8-(3,3-difluoro-1-hydroxy-propyl)-10-methyl-1-oxo-1,3,4,7,8,9-hexahydropyrido[2,3]pyrazolo[2,4-b][1,4]diazepine-2-carboxamide], 1 to 100 nM.
The same measure, in the same setting: then `CC(=O)NCC1CN(C)C(=O)c2c3c(nn2C1)CCN(C(=O)Nc1ccc(F)c(Cl)c1)C3` (stereo not drawn) [Compound 117, 8-(acetamidomethyl)-N-(3-chloro-4-fluorophenyl)-10-methyl-11-oxo-1,3,4,7,8,9,10,11-octahydro-2H-pyrido[4′,3′:3,4]pyrazolo[1,5-a][1,4]diazepine-2-carboxamide], with 1 to 100 nM; and `CN1CC(CNCC(F)F)Cn2nc3c(c2C1=O)CN(C(=O)Nc1ccc(F)c(C#N)c1)CC3` (stereo not drawn) [Compound 118, N-(3-cyano-4-fluorophenyl)-8-(((2,2-difluoroethyl)amino)methyl)-10-methyl-11-oxo-1,3,4,7,8,9,10,11-octahydro-2H-pyrido[4′,3′:3,4]pyrazolo[1,5-a][1,4]diazepine-2-carboxamide], with 1 to 100 nM.
On the same count and under the same terms, then `CN1CC(CNCC(F)F)Cn2nc3c(c2C1=O)CN(C(=O)Nc1ccc(F)c(C(F)(F)F)c1)CC3` (stereo not drawn) [Compound 119, 8-(((2,2-difluoroethyl)amino)methyl)-N-(4-fluoro-3-(trifluoromethyl)phenyl)-10-methyl-11-oxo-1,3,4,7,8,9,10,11-octahydro-2H-pyrido[4′,3′:3,4]pyrazolo[1,5-a][1,4] diazepine-2-carboxamide], with 1 to 100 nM; and `CN1CC(CNCC(F)(F)F)Cn2nc3c(c2C1=O)CN(C(=O)Nc1ccc(F)c(C#N)c1)CC3` (stereo not drawn) [Compound 120, N-(3-cyano-4-fluorophenyl)-10-methyl-11-oxo-8-(((2,2,2-trifluoroethyl)amino)methyl)-1,3,4,7,8,9,10,11-octahydro-2H-pyrido[4′,3′:3,4]pyrazolo [1,5-a][1,4]diazepine-2-carboxamide], with 1 to 100 nM; and `CN1CC(CNCC(F)(F)F)Cn2nc3c(c2C1=O)CN(C(=O)Nc1ccc(F)c(C(F)(F)F)c1)CC3` (stereo not drawn) [Compound 121, N-(4-fluoro-3-(trifluoromethyl)phenyl)-10-methyl-11-oxo-8-(((2,2,2-trifluoroethyl)amino)methyl)-1,3,4,7,8,9,10,11-octahydro-2H-pyrido[4′,3′:3,4]pyrazolo[1,5-a][1,4]diazepine-2-carboxamide], with 1 to 100 nM.
Consider `C=CC(O)C1CN(C)C(=O)c2c3c(nn2C1)CC(C)N(C(=O)Nc1ccc(F)c(Br)c1)C3` [Compound 124_D1, (3R,8S*)—N-(3-bromo-4-fluorophenyl)-8-((R*)-1-hydroxyallyl)-3,10-dimethyl-11-oxo-1,3,4,7,8,9,10,11-octahydro-2H-pyrido[4′,3′:3,4]pyrazolo[1,5-a][1,4]diazepine-2-carboxamide], for which the EC50 was in the range of 1 to 100 nM.

(Values after patent publication US10975077B2 (Novira Therapeutics, Inc., priority 2016, dated 2021).)
